In brackets after ≈: the same amount, converted by molar mass. Read-outs that look alike come from different tables or passages of the source.
Columns and labels:
[1] = tested on: Staphyloccocus aureus subsp. aureus Rosenbach (ATCC 6538P); test: broth microdilution assay (NCCLS), antibacterial activity; assay type: cell-based, Staphylococcus aureus; conditions: for MIC: S. aureus subsp. aureus Rosenbach, broth microdilution
Procedure: The antibacterial activity of purified everninomicins and conjugates was determined by the broth microdilution assay according to NCCLS guidelines using Staphyloccocus aureus subsp. aureus Rosenbach (ATCC 6538P) as the test organism.

M. carbonacea = test: nalidixic acid concentration test for conjugation, survival of M. carbonacea; assay type: cell-based, Micromonospora carbonacea var aurantiaca
E. coli = test: nalidixic acid concentration test for conjugation, growth of donor E. coli; assay type: cell-based, Escherichia coli
Procedure: M. carbonacea was grown on TSB agar (Oxoid™ Tryptone Soy Broth, 2% agarose) for 7 days at 30° C. Conjugal acceptor mycelia were prepared by inoculating a loop of mycelia into 10 mL of TSB medium in a 50 mL Falcon tube and incubating with shaking at 30° C. for 5 days. The culture was then centrifuged at 3000×g for 10 minutes and the pellet resuspended in 2 mL fresh TSB. 150 μL aliquots were transferred into sterile 1.5 mL Eppendorf tubes and homogenized using a sterile plastic cell homogenizer. Donor E. coli ET12567/pUZ8002 cells containing the gene replacement were prepared by inoculating 1% of a freshly prepared overnight LB culture into 10 mL LB medium in a 50 mL Falcon tube containing apramycin and kanamycin and grown to an OD600 of 0.4 at 37° C. with shaking. The culture was centrifuged at 3000×g for 10 minutes, and the pellet was washed three times with 10 mL fresh LB. After the final wash, the pellet was resuspended in 150 μL LB. 50 μL of donor E. coli was added to 150 μL of recipient M. carbonacea. The bacterial mixture was plated on AS1 agar (0.1% yeast extract, 0.5% soluble starch, 0.02% L-alanine, 0.02% L-arginine, 0.05% L-asparagine, 0.25% NaCl, 1% Na2SO4, 2% agarose at pH 7.5, supplemented with 10 mM MgCl2). The plates were then incubated at 37° C. for 1-2 hours until thoroughly dried. […]

HygX = target: T1, HygX (Streptomyces hygroscopicus, UniProt Q2MFS1); test: tryptophan fluorescence quenching assay, hygromycin B binding to HygX; set-up: species or system S. hygroscopicus; conditions: 20° C.
T1 sequence (Q2MFS1 1-258): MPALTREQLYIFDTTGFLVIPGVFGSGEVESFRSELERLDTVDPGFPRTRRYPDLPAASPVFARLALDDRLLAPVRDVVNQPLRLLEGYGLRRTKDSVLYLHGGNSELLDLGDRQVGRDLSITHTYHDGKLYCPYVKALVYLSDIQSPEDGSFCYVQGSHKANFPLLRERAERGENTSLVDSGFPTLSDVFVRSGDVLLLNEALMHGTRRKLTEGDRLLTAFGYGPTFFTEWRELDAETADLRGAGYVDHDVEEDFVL
Procedure: The Kd of hygromycin B binding to HygX was determined by monitoring the quenching of intrinsic fluorescence from the single tryptophan residue of HygX upon hygromycin B binding. Using a Cary Eclipse Varian fluorescence spectrometer, sample fluorescence was measured at 20° C. with both emission and excitation slits set at 10 nm and detector voltage set to 800 V. The […] wavelength was set to 280 nm, and spectra collected were from 300 to 400 nm, with 350 nm used for calculating binding affinity. Each sample contained 990 μL of 0.5 μM HygX in 25 mM Tris (pH 7.4), 75 mM NaCl, 0.05 mM AKG, and 0.05 mM NiCl2, which was then mixed with 10 μL of hygromycin B (diluted in the above buffer) of varying concentrations. Spectra were measured in triplicate, and the experiment repeated three times. Because hygromycin B at higher concentrations has background fluorescence between 300 and 400 nm, the experiment was repeated using only buffer and subtracted from the measurement taken with HygX present. Change in fluorescence resulting from changing hygromycin B concentration was plotted against hygromycin B concentration and fit to a single binding-site model using Kaleidagraph Version 4.0.

[2] = Staphylococcus aureus, ATCC6538P, read-out: MIC

CCC1OC(=O)C[C@@H](O)[C@H](C)[C@@H](OC2OC(C)CC(N(C)C)C2O)[C@@H](CC=[N+]([O-])[C@@]2(C)C[C@@H](O[C@@H]3C[C@H](O[C@@H]([C@H](O)CC(=O)O)[C@@H](C)O)O[C@H](C)[C@H]3OC(=O)c3c(C)c(Cl)c(O)c(Cl)c3OC)O[C@@H](C)[C@H]2OC)C[C@@H](C)C(=O)/C=C/[C@]2(C)O[C@H]2[C@@H]1C (stereo partly shown)
MIC [1, 2]: 1 µg/mL (≈ 0.791 µM)

COC[C@H]1O[C@@H](O[C@@H]2OC[C@@H]3O[C@@]4(OC[C@@H](OC(=O)c5c(C)cc(O)cc5O)[C@@H]5OCO[C@H]54)O[C@H]3[C@H]2O)[C@@H](OC)[C@@H](O)[C@@H]1O[C@@H]1O[C@H](C)[C@H](OC)[C@H](O[C@@H]2O[C@H](C)[C@H]3O[C@]4(C[C@@H](O)[C@H](O[C@H]5C[C@@H](O[C@H]6C[C@](C)([N+](=O)[O-])[C@@H](OC)[C@H](C)O6)[C@H](OC(=O)c6c(C)c(Cl)c(O)c(Cl)c6OC)[C@@H](C)O5)[C@@H](C)O4)O[C@]3(C)[C@@H]2O)[C@H]1O [everninomicin A]
MIC [1, 2]: 1 µg/mL (≈ 0.613 µM)

CCn1cc(C(=O)O)c(=O)c2ccc(C)nc21 [nalidixic acid]
growth of M. carbonacea (M. carbonacea; nalidixic acid 12.5 μg/mL): substantially more | growth of M. carbonacea (M. carbonacea; nalidixic acid 25 μg/mL): stunted the growth | viability of M. carbonacea (M. carbonacea; nalidixic acid 50 μg/mL): not viable | growth of E. coli (E. coli; nalidixic acid 12.5 μg/mL): stunted | growth of E. coli (E. coli; nalidixic acid 25 μg/mL): stunted the growth

everninomicin H
activity against S. aureus ([1]; S. aureus): moderately active | MIC [1]: 16 µg/mL

CNC1CC(N)C(O)C(OC2OC(CO)C(O)C3OC4(OC(C(N)CO)C(O)C(O)C4O)OC23)C1O (stereo not shown) [hygromycin B]
Kd (HygX): 3.4 ± 0.5 µM

Source: patent publication US10696996B2, “Biosynthesis of everninomicin analogs in Micromonospora carbonacea var aurantiaca” (VANDERBILT UNIVERSITY, priority 2015, dated 2020)
